This passage reports EC50 results from patent US10975077B2 (Novira Therapeutics, Inc., priority 2016, dated 2021).

A value given as a limit tells only on which side of the number the result lay.

The term EC50 denotes the concentration that produces a half-maximal response.

The first experiment concerns HBV (encapsidated HBV DNA, HepG2.2.15 cells). The experiment in a line: HBV replication inhibition assay, BDNA assay in HepG2.2.15 cells. It counts as cell-based. The settings on record: Activity in BDNA-assay. How it is done:
HBV replication inhibition by the disclosed compounds were determined in cells infected or transfected with HBV, or cells with stably integrated HBV, such as HepG2.2.15 cells (Sells et al. 1987). In this example, HepG2.2.15 cells were maintained in cell culture medium containing 10% fetal bovine serum (FBS), Geneticin, L-glutamine, penicillin and streptomycin. HepG2.2.15 cells were seeded in 96-well plates at a density of 40,000 cells/well and were treated with serially diluted compounds at a final DMSO concentration of 0.5% either alone or in combination by adding drugs in a checker box format. Cells were incubated with compounds for three days, after which medium was removed and fresh medium containing compounds was added to cells and incubated for another three days. At day 6, supernatant was removed and treated with DNase at 37° C. for 60 minutes, followed by enzyme inactivation at 75° C. for 15 minutes. Encapsidated HBV DNA was released from the virions and covalently linked HBV polymerase by incubating in lysis buffer (Affymetrix QS0010) containing 2.5 μg proteinase K at 50° C. for 40 minutes. HBV DNA was denatured by addition of 0.2 M NaOH and detected using a branched DNA (BDNA) QuantiGene assay kit according to manufacturer recommendation (Affymetrix). HBV DNA levels were also quantified using qPCR, based on amplification of encapsidated HBV DNA extraction with QuickExtraction Solution (Epicentre Biotechnologies) and amplification of HBV DNA using HBV specific PCR probes that can hybridize to HBV DNA and a fluorescently labeled probe for quantitation. In addition, cell viability of HepG2.2.15 cells incubated with test compounds alone or in combination was determined by using CellTitre-Glo reagent according to the manufacturer protocol (Promega). The mean background signal from wells containing only culture medium was subtracted from all other samples, and percent inhibition at each compound concentration was calculated by normalizing to signals from HepG2.2.15 cells treated with 0.5% DMSO using equation E1. % inhibition=(DMSOave−Xi)/DMSOave×100% E1: where DMSOave is the mean signal calculated from the wells that were treated with DMSO control (0% inhibition control) and Xi is the signal measured from the individual wells. EC50 values, effective concentrations that achieved 50% inhibitory effect, were determined by non-linear fitting using Graphpad Prism software (San Diego, Calif.) and equation E2: Y=Y min+(Y max −Y min)/(1+10(Log EC50−X)×HillSlope) E2: […]
where Y represents percent inhibition values and X represents the logarithm of compound concentrations.
Selected disclosed compounds were assayed in the HBV replication assay (BDNA assay), as described above and a representative group of these active compounds is shown in Table 6.
Consider `CN1CC([S+](C)[O-])Cn2nc3c(c2C1=O)CN(C(=O)Nc1ccc(F)c(Cl)c1)CC3` (single isomer, unassigned) [Compound 026B, N-(3-chloro-4-fluoro-phenyl)-10-methyl-8-methylsulfinyl-11-oxo-1,3,4,7,8,9-hexahydropyrido[2,3]pyrazolo[2,4-b][1,4]diazepine-2-carboxamide], for which the EC50 lay within 500 to 1000 nM.

Consider `C[C@@H]1Cc2nn3c(c2CN1C(=O)Nc1ccc(F)c(Cl)c1)C(=O)N(C)CC(C)(F)C3` (single isomer, unassigned) [Compound 079_D2, (3R,8S*)—N-(3-chloro-4-fluorophenyl)-8-fluoro-3,8,10-trimethyl-11-oxo-1,3,4,7,8,9,10,11-octahydro-2H-pyrido[4′,3′:3,4]pyrazolo[1,5-a][1,4]diazepine-2-carboxamide], for which the EC50 was in the range of 1 to 100 nM.

As for `CC1CN(C)C(=O)c2c3c(nn2C1)C[C@@H](C)N(C(=O)Nc1ccc(F)c(Cl)c1)C3` (single isomer, unassigned) [Compound 080_D2, (3R,8R*)—N-(3-chloro-4-fluorophenyl)-3,8,10-trimethyl-11-oxo-3,4,8,9,10,11-hexahydro-1H-pyrido[4′,3′:3,4]pyrazolo[1,5-a][1,4]diazepine-2 (7H)-carboxamide], the EC50 lay in the range of 1 to 100 nM.

With `C[C@@H]1Cc2nn3c(c2CN1C(=O)Nc1ccc(F)c(C(F)(F)F)c1)C(=O)N(C)CC(CO)C3` (single isomer, unassigned) [Compound 081_D2, (3R,8R*)—N-(4-fluoro-3-(trifluoromethyl)phenyl)-8-(hydroxymethyl)-3,10-dimethyl-11-oxo-3,4,8,9,10,11-hexahydro-1H-pyrido[4′,3′:3,4]pyrazolo[1,5-a][1,4]diazepine-2 (7H)-carboxamide], the EC50 lay in the range of 1 to 100 nM.

With `C[C@@H]1Cc2nn3c(c2CN1C(=O)Nc1cc(C(F)(F)F)c(F)cc1F)C(=O)N(C)CC(CO)C3` (single isomer, unassigned) [Compound 082_D1, (3R,8S*)—N-(2,4-difluoro-5-(trifluoromethyl)phenyl)-8-(hydroxmethyl)-3,10-dimethyl-11-oxo-1,3,4,7,8,9,10,11-octahydro-2H-pyrido[4′,3′:3,4]pyrazolo[1,5-a][1,4]diazepine-2-carboxamide], the EC50 is 1 to 100 nM.

`C[C@@H]1Cc2nn3c(c2CN1C(=O)Nc1cc(C(F)(F)F)c(F)cc1F)C(=O)N(C)CC(CO)C3` (single isomer, unassigned) [Compound 082_D2, (3R,8R*)—N-(2,4-difluoro-5-(trifluoromethyl)phenyl)-8-(hydroxymethyl)-3,10-dimethyl-11-oxo-1,3,4,7,8,9,10,11-octahydro-2H-pyrido[4′,3′:3,4]pyrazolo[1,5-a][1,4]diazepine-2-carboxamide]: the EC50 fell in the range of 100 to 500 nM.

`C[C@@H]1Cc2nn3c(c2CN1C(=O)Nc1ccc(F)c(C(F)(F)F)c1F)C(=O)N(C)CC(CO)C3` (single isomer, unassigned) [Compound 083_D2, (3R,8R*)—N-(2,4-difluoro-3-(trifluoromethyl)phenyl)-8-(hydroxymethyl)-3,10-dimethyl-11-oxo-1,3,4,7,8,9,10,11-octahydro-2H-pyrido[4′,3′:3,4]pyrazolo[1,5-a][1,4] diazepine-2-carboxamide]: the EC50 lay in the range of 1 to 100 nM.

Take `C[C@@H]1Cc2nn3c(c2CN1C(=O)Nc1ccc(F)c(Br)c1F)C(=O)N(C)CC(CO)C3` (single isomer, unassigned) [Compound 084_D1, (3R,8S*)—N-(3-bromo-2,4-difluorophenyl)-8-(hydroxymethyl)-3,10-dimethyl-11-oxo-1,3,4,7,8,9,10,11-octahydro-2H-pyrido[4′,3′:3,4]pyrazolo[1,5-a][1,4]diazepine-2-carboxamide]: the EC50 is 100 to 500 nM.

For `C[C@@H]1Cc2nn3c(c2CN1C(=O)Nc1ccc(F)c(Br)c1F)C(=O)N(C)CC(CO)C3` (single isomer, unassigned) [Compound 084_D2, (3R,8R*)—N-(3-bromo-2,4-difluorophenyl)-8-(hydroxymethyl)-3,10-dimethyl-11-oxo-1,3,4,7,8,9,10,11-octahydro-2H-pyrido[4′,3′:3,4]pyrazolo[1,5-a][1,4]diazepine-2-carboxamide], the EC50 is 1 to 100 nM.

Take `C[C@@H]1Cc2nn3c(c2CN1C(=O)Nc1cc(Br)c(F)cc1F)C(=O)N(C)CC(CO)C3` (single isomer, unassigned) [Compound 085_D2, (3R,8R*)—N-(5-bromo-2,4-difluorophenyl)-8-(hydroxymethyl)-3,10-dimethyl-11-oxo-1,3,4,7,8,9,10,11-octahydro-2H-pyrido[4′,3′:3,4]pyrazolo[1,5-a][1,4]diazepine-2-carboxamide]: the EC50 was in the range of 1 to 100 nM.

Staying with this experiment, now noted: Hepatitis B virus, HepG2.2.15, Activity in BDNA-assay.
For the molecule `COC1CN(C)C(=O)c2c3c(nn2C1)CCN(C(=O)Nc1ccc(F)c(Cl)c1)C3` (single isomer, unassigned) [Compound 016B, (R*)—N-(3-chloro-4-fluorophenyl)-8-methoxy-10-methyl-11-oxo-3,4,8,9,10,11-hexahydro-1H-pyrido[4′,3′:3,4]pyrazolo[1,5-a][1,4]diazepine-2 (7H)-carboxamide], the EC50 was 1 to 100 nM.

`CN1CC([S+](C)[O-])Cn2nc3c(c2C1=O)CN(C(=O)Nc1ccc(F)c(Cl)c1)CC3` (single isomer, unassigned) [Compound 026A, N-(3-chloro-4-fluoro-phenyl)-10-methyl-8-methylsulfinyl-11-oxo-1,3,4,7,8,9-hexahydropyrido[2,3]pyrazolo[2,4-b][1,4]diazepine-2-carboxamide]: the EC50 was above 1000 nM.

Take `C[C@@H]1Cc2nn3c(c2CN1C(=O)Nc1ccc(F)c(Cl)c1)C(=O)N(C)CC(C)(F)C3` (single isomer, unassigned) [Compound 079_D1, (3R,8R*)—N-(3-chloro-4-fluorophenyl)-8-fluoro-3,8,10-trimethyl-11-oxo-1,3,4,7,8,9,10,11-octahydro-2H-pyrido[4′,3′:3,4]pyrazolo[1,5-a][1,4]diazepine-2-carboxamide]: the EC50 was in the range of 1 to 100 nM.

As for `CC1CN(C)C(=O)c2c3c(nn2C1)C[C@@H](C)N(C(=O)Nc1ccc(F)c(Cl)c1)C3` (single isomer, unassigned) [Compound 080_D1, (3R,8S*)—N-(3-chloro-4-fluorophenyl)-3,8,10-trimethyl-11-oxo-3,4,8,9,10,11-hexahydro-1H-pyrido[4′,3′,3,4]pyrazolo[1,5-a][1,4] diazepine-2 (7H)-carboxamide], the EC50 lay within 1 to 100 nM.

On to `C[C@@H]1Cc2nn3c(c2CN1C(=O)Nc1ccc(F)c(C(F)(F)F)c1)C(=O)N(C)CC(CO)C3` (single isomer, unassigned) [Compound 081_D1, (3R,8S*)—N-(4-fluoro-3-(trifluoromethyl)phenyl)-8-(hydroxymethyl)-3,10-dimethyl-11-oxo-3,4,8,9,10,11-hexahydro-1H-pyrido[4′,3′:3,4]pyrazolo[1,5-a][14]diazepine-2 (7H)-carboxamide], for which the EC50 is 1 to 100 nM.

For `C[C@@H]1Cc2nn3c(c2CN1C(=O)Nc1ccc(F)c(C(F)(F)F)c1F)C(=O)N(C)CC(CO)C3` (single isomer, unassigned) [Compound 083_D1, (3R,8S*)—N-(2,4-difluoro-3-(trifluoromethyl)phenyl)-8-(hydroxymethyl)-3,10-dimethyl-11-oxo-1,3,4,7,8,9,10,11-octahydro-2H-pyrido[4′,3′:3,4]pyrazolo[1,5-a][1,4] diazepine-2-carboxamide], the half-maximal effective concentration (EC50) lay in the range of 1 to 100 nM.

As to `C[C@@H]1Cc2nn3c(c2CN1C(=O)Nc1cc(Br)c(F)cc1F)C(=O)N(C)CC(CO)C3` (single isomer, unassigned) [Compound 085_D1, (3R,8 S*)—N-(5-bromo-2,4-difluorophenyl)-8-(hydroxymethyl)-3,10-dimethyl-11-oxo-1,3,4,7,8,9,10,11-octahydro-2H-pyrido[4′,3′:3,4]pyrazolo[1,5-a][1,4]diazepine-2-carboxamide], the EC50 fell in the range of 1 to 100 nM.

As to `C[C@@H]1Cc2nn3c(c2CN1C(=O)Nc1ccc(F)c(Br)c1)C(=O)N(C)CC(CO)C3` (single isomer, unassigned) [Compound 086_D1, (3R,8S*)—N-(3-bromo-4-fluorophenyl)-8-(hydroxymethyl)-3,10-dimethyl-11-oxo-1,3,4,7,8,9,10,11-octahydro-2H-pyrido[4′,3′:3,4]pyrazolo[1,5-a][1,4]diazepine-2-carboxamide], the EC50 fell in the range of 1 to 100 nM.
